According to patent publication US20240384268A1, “Oligonucleotides” (Hudson Institute of Medical Research, priority 2021, published 2024):
In the oligonucleotide strings, read from the 5' end, every base follows the letter of its sugar. An asterisk marks phosphorothioate; unmarked linkages are phosphodiester. Other units and linkages are bracketed, terminal groups are in braces. A string of capitals states the bases alone. d = 2'-deoxy (DNA); m = 2'-O-methyl

Molecular target: T1, TLR8 (Homo sapiens, UniProt Q9NR97)
T1 sequence (Q9NR97 27-1041): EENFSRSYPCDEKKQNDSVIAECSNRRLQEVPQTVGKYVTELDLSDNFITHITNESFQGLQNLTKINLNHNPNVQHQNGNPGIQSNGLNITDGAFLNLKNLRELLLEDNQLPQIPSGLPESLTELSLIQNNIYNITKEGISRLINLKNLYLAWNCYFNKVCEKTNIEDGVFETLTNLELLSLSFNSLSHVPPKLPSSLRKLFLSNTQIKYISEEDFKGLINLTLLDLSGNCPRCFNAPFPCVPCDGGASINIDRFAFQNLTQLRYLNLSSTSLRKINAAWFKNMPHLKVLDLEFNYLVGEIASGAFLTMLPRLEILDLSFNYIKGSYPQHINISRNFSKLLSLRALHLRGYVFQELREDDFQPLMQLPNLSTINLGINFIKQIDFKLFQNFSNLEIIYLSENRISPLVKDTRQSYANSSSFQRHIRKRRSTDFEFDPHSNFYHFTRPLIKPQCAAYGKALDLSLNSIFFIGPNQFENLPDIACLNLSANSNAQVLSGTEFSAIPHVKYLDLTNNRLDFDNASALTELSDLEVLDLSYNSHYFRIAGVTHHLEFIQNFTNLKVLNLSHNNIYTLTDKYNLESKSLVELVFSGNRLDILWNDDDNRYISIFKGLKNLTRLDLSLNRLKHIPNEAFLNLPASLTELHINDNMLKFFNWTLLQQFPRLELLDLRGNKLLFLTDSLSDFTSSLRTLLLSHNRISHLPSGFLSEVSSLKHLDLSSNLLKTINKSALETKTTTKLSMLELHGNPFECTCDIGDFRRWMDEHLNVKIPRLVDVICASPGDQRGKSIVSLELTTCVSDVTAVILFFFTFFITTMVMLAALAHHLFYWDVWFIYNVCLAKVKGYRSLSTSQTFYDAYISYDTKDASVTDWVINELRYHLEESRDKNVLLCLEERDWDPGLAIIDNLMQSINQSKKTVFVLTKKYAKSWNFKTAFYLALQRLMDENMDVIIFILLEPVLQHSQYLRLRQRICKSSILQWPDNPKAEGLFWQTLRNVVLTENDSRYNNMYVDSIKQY
Assay: R848-driven IP-10 production in THP-1 cells (TLR8);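 further: IP-10 by ELISA in supernatant after 7 h R848 stimulation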
Type: cell-based
Design: expressed in transfected cells
Details: 3mer 2'OMe ASO at 1 uM; raw values, Ligand only = 355.752, NT = 134.831

Substance	TLR8 1 uM
UUC (mU*mU*mC)	213.878
UUG (listed as RNA, chemistry not fully specified)	347.573
UUU (mU*mU*mU)	307.213
dA*dA*dA (DNA AAA; listed as DNA, chemistry not fully specified)	225.029
dA*dA*dC (DNA AAC; listed as DNA, chemistry not fully specified)	218.889
dA*dA*dG (DNA AAG; listed as DNA, chemistry not fully specified)	179.302
dA*dC*dA (DNA ACA; listed as RNA, chemistry not fully specified)	262.630
dA*dG*dA (DNA AGA; listed as DNA, chemistry not fully specified)	214.450
dA*dG*dC (DNA AGC; listed as DNA, chemistry not fully specified)	267.225
dC*dA*dA (CAA; listed as DNA, chemistry not fully specified)	373.157
dC*dA*dC (CAC; listed as RNA, chemistry not fully specified)	344.415
dC*dC*dA (CCA; listed as DNA, chemistry not fully specified)	181.239
dC*dC*dC (CCC; listed as DNA, chemistry not fully specified)	181.399
dC*dC*dG (CCG; listed as DNA, chemistry not fully specified)	437.264
dC*dG*dA (CGA; listed as DNA, chemistry not fully specified)	504.099
dG*dC*dC [GCC]	209.536
dG*dC*dG [GCG]	290.409
mAmUmC (mA*mU*mC) [AUC, 3-mer 2′OMe PS oligo]	181.793
mCmUmU (antisense mC*mU*mU) [660-3]	167.148
mGmAmU (mG*mA*mU) [GAU, 3-mer 2′OMe PS oligo]	147.162
mGmUmA (GUA; all 2'-O-methyl, backbone not given here; further chemistry not fully specified) [shortMut1-3b]	133.537
mGmUmC (mG*mU*mC) [GUC, 3-mer 2′OMe PS oligo]	131.948
mGmUmG (mG*mU*mG) [GUG, 3-mer 2′OMe PS oligo]	158.982
mGmUmU (mG*mU*mU) [GUU, 3-mer 2′OMe PS oligo]	166.278
mUmCmA (mU*mC*mA) [UCA, 3-mer 2′OMe PS oligo]	1049.345
mUmCmG (antisense mU*mC*mG) [660-3b]	746.272
mUmGmA (mU*mG*mA) [UGA, 3-mer 2′OMe PS oligo]	267.234
mUmGmG (mU*mG*mG) [UGG, 3-mer 2′OMe PS oligo]	527.575
